The numbers were not newly measured in US12258594B2, “Cas proteins with reduced immunogenicity and methods of screening thereof” (THE BROAD INSTITUTE, INC., priority 2018, dated 2025), which cites them from elsewhere.

The subject of one data set is target DNA. The settings on record: AsCpf1 mutants.
Consider 51228A: mutant of Ser1228 of AsCpf1, for which the DNA cleavage activity entry is recorded as “comparable to that of wild-type AsCpf1”.

In the case of D1263A: D1263A mutant of AsCpf1, the DNA cleavage activity entry was “significantly reduced activity”.

For W382A: W382A mutant of AsCpf1, the DNA cleavage activity result is listed as “reduced activity”.

With R1226A: R1226A mutant of AsCpf1, the DNA cleavage activity result was “almost no activity”.

As for K548A: K548A mutant of AsCpf1, the DNA cleavage activity entry was “reduced activities”.

In the case of D908A: D908A mutant of AsCpf1, the DNA cleavage activity result is reported as “almost no activity”.

For G783P: G783P mutant of AsCpf1, the DNA cleavage activity entry is “reduced activities”.

Take M604A: M604A mutant of AsCpf1: the DNA cleavage activity entry is recorded as “reduced activities”.

For D1235A: D1235A mutant of AsCpf1, the DNA cleavage activity result was “reduced activity”.

With R192A: R192A mutant of AsCpf1, the DNA cleavage activity result is given as “reduced activities”.

With R176A: R176A mutant of AsCpf1, the DNA cleavage activity entry was “reduced activities”.

With K607A: K607A mutant of AsCpf1, the DNA cleavage activity entry is on record as “almost no activity”.

On to R951A: R951A mutant of AsCpf1, for which the DNA cleavage activity entry was “reduced activities”.

Turning to E993A: E993A mutant of AsCpf1, the DNA cleavage activity result was “almost no activity”.

The same data set, now with this note: AsCpf1 mutants, target and non-target strand.
On to R1226A: R1226A mutant of AsCpf1, for which the DNA strand cleaved entry is given as “acts as a nickase that cleaves the non-target DNA strand, but not the target strand”.

For a further data set, the system named is Factor VII. The settings on record: LNP siRNA systems containing the lipid; hepatocytes in vivo.
Turning to `CCCCC/C=C\C/C=C\CCCCCCCC(=O)OCC(CN(C)C)OC(=O)CCCCCCC/C=C\C/C=C\CCCCC` (stereo not shown) [DLinDAP, 1,2-dilineoyl-3-dimethylammonium-propane], the “gene silencing potencies, series (rank order)” value (“gene silencing potencies” below) is “DLinKC2-DMA>DLinKDMA>DLinDMA>>DLinDAP”.

As for “1,2-dilinoleyloxy-keto-N,N-dimethyl-3-aminopropane [DLinKDMA]”, the “gene silencing potencies” value is recorded as “DLinKC2-DMA>DLinKDMA>DLinDMA>>DLinDAP”.

As to `CCCCC/C=C\C/C=C\CCCCCCCCC1(CCCCCCCC/C=C\C/C=C\CCCCC)OCC(CCN(C)C)O1` (stereo not shown) [DLinKC2-DMA, 1,2-dilinoleyl-4-(2-dimethylaminoethyl)-[1,3]-dioxolane], the “gene silencing potencies” value is on record as “DLinKC2-DMA>DLinKDMA>DLinDMA>>DLinDAP”.

As to `CCCCC/C=C\C/C=C\CCCCCCCCOCC(CN(C)C)OCCCCCCCC/C=C\C/C=C\CCCCC` (stereo not shown) [DLinDMA, 1,2-dilinoleyloxy-3-N,N-dimethylaminopropane], the “gene silencing potencies” value is listed as “DLinKC2-DMA>DLinKDMA>DLinDMA>>DLinDAP”.

The next data set has as its system dystrophin gene exon 51. As to conditions: across 48 weeks.
Take eteplirsen: the “average dystrophin positive fibers compared to baseline” value is recorded as 47%.

For the next data set, the system named is target sites with PAM. As to conditions: AsCpf1 and variants.
Take “S542R/K607R: AsCpf1 variant with the mutations S542R/K607R”: the “PAM of target sites that can be cleaved” value is on record as “TYCV/CCCC”.

On to “S542R/K548V/N552R: AsCpf1 variant with the mutations S542R/K548V/N552R”, for which the “PAM of target sites that can be cleaved” value was “TATV”.

On to AsCpf1: Acidaminococcus sp. BV3L6 Cpf1, for which the “PAM of target sites that can be cleaved” value is reported as “TTTV”.

The same data set, now with this note: in vitro and in human cells.
Turning to “S542R/K607R: AsCpf1 variant with the mutations S542R/K607R”, the “activities at the altered PAMs” value is given as “enhanced activities”.

For the molecule “S542R/K548V/N552R: AsCpf1 variant with the mutations S542R/K548V/N552R”, the “activities at the altered PAMs” value is on record as “enhanced activities”.
